Measurements published in patent publication US20240246918A1, “COMPOUNDS AND COMPOSITIONS AS EIF4E INHIBITORS AND THE USES THEREOF” (Ribometrix, Inc., priority 2022, published 2024).
Like-named read-outs stand apart in the source and are kept apart here.

What was measured:
[1] = system: COLO 205 colorectal tumor cells; experiment: Tumor cell viability inhibition assay (CellTiter-Glo 2.0, 72 hours); type: cell-based; details: COLO 205 cell viability
How it was run: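 COLO 205 cells (1500/well, RPMI-1640 + 10% FBS) exposed for 72 h to an 11-point, 4-fold dilution series; cellular ATP read by CellTiter-Glo 2.0 luminescence. Data normalized to DMSO and maximum-inhibition controls; IC50 from 4-parameter curve fit.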

[2] = system: cap-dependent translation in Flp-In-293 reporter cells; experiment: Cellular cap-dependent translation inhibition assay (dual luciferase assay, DLA; Fluc/Rluc ratio, 24 hours); type: cell-based; details: dual luciferase assay, Flp-In-293 reporter cells, 24 hours, Fluc/Rluc ratio, read-out: DLA 205 IC50
human eIF4E protein = target: T1, human eIF4E protein (Homo sapiens, UniProt P06730); experiment: Biochemical competitive binding assay (TR-FRET competition, EDA-m7GDP-ATTO-647N probe); details: read-out: hEIF4E TR-FRET IC50
T1 construct: purchased Novus NBP-45314
T1 sequence (P06730 whole entry): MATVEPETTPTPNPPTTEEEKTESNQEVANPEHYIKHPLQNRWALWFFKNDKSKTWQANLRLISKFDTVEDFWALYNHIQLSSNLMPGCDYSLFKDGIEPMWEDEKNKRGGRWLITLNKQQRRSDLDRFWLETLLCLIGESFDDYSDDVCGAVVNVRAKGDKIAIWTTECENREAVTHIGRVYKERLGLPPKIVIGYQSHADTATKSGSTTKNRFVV
How it was run: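 His-tagged human eIF4E (4 nM) was preincubated with Eu-anti-His antibody (2.5 nM) and added to compound (11-point, 4-fold dilutions) for 15 min. Then 5 nM EDA-m7GDP-ATTO-647N was added for 15 min, in HEPES pH 7.5, 100 mM KCl. The 665/620 TR-FRET ratio was normalized to controls, and IC50 was taken from 4-parameter fits.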

What does the source list for Cc1cc(-c2cc(Cl)ccc2OCCn2c(C)nc3c(c2=O)CC(N2CC(C(F)(F)F)C2)CC3)c2scc(C(=O)NS(C)(=O)=O)c2n1 (single isomer, unassigned) [Compound 322]?
IC50 [1]: < 5000 nM; IC50 [2]: < 1000 nM; IC50 (human eIF4E protein): < 100 nM

Cc1cc(-c2cc(Cl)ccc2OCCn2c(C)nc3c(c2=O)C[C@H](N2CCC[C@@H](F)C2)CC3)c2scc(C(=O)O)c2n1 (single isomer, unassigned) [Compound 323] was tested. Which IC50 ([1]; Homo sapiens, COLO 205, 72 h) did it give?
Its IC50 is less than 5000 nM.

What about the IC50 ([2]; Homo sapiens, Flp-In-293, 24 h) of the same compound?
The IC50 was less than 1000 nM.

What about the IC50 (human eIF4E protein) of the same compound?
The IC50 was less than 100 nM.

Which IC50 ([1]; Homo sapiens, COLO 205, 72 h) does the source give for Cc1cc(-c2cc(Cl)ccc2OCCn2c(C)nc3c(c2=O)C[C@@H](N2CCC[C@@H](F)C2)CC3)c2scc(C(=O)O)c2n1 (single isomer, unassigned) [Compound 324] here?
Its IC50 is less than 5000 nM.

And the IC50 ([2]; Homo sapiens, Flp-In-293, 24 h)?
Its IC50 is less than 1000 nM.

And the IC50 (human eIF4E protein)?
Its IC50 is less than 100 nM.

Which results are given for Cc1nc2c(c(=O)n1CC#Cc1ccc(Cl)cc1-c1ccnc3c(C(=O)O)csc13)C[C@@H](N1CC[C@@H](F)C1)CC2 (single isomer, unassigned) [Compound 327]?
IC50 ([1]; Homo sapiens, COLO 205, 72 h): < 5000 nM; IC50 ([2]; Homo sapiens, Flp-In-293, 24 h): < 1000 nM; IC50 (human eIF4E protein): < 100 nM

With Cc1cc(-c2cc(Cl)ccc2OCCn2c(C)nc3c(c2=O)C[C@@H](N2CC[C@@H](F)C2)CC3)c2scc(C(=O)O)c2n1 (single isomer, unassigned) [Compound 329] as the compound, how does the IC50 ([1]; Homo sapiens, COLO 205, 72 h) read?
Its IC50 is less than 5000 nM.

What about the IC50 ([2]; Homo sapiens, Flp-In-293, 24 h) of the same compound?
Its IC50 is less than 1000 nM.

And the IC50 (human eIF4E protein)?
Its IC50 is less than 100 nM.

Which IC50 ([1]; Homo sapiens, COLO 205, 72 h) does the source give for Cc1cc(-c2cc(Cl)ccc2OCCn2c(C)nc3c(c2=O)CC(N(C)Cc2ccncc2)CC3)c2scc(C(=O)NS(C)(=O)=O)c2n1 (single isomer, unassigned) [Compound 330] here?
The IC50 was less than 5000 nM.

What about the IC50 ([2]; Homo sapiens, Flp-In-293, 24 h) of the same compound?
Its IC50 is less than 1000 nM.

What about the IC50 (human eIF4E protein) of the same compound?
The IC50 was less than 100 nM.

With Cc1nc2c(c(=O)n1CC#Cc1ccc(Cl)cc1-c1ccnc3c(C(=O)NS(C)(=O)=O)csc13)CC(N1CC(F)(F)C1)CC2 (single isomer, unassigned) [Compound 331] as the compound, how does the IC50 ([1]; Homo sapiens, COLO 205, 72 h) read?
The IC50 was 5000 to 20000 nM.

What about the IC50 [2] of the same compound?
Its IC50 is 1000 to 5000 nM.

And the IC50 (human eIF4E protein)?
The IC50 was 100 to 500 nM.

For Cc1nc2c(c(=O)n1CC#Cc1ccc(Cl)cc1-c1ccnc3c(C(=O)NS(C)(=O)=O)csc13)CC(N1CC(F)(F)C1)CC2 (single isomer, unassigned) [Compound 332], which IC50 [1] is on record?
The IC50 was 5000 to 20000 nM.

And the IC50 [2]?
The IC50 was greater than 5000 nM.

What about the IC50 (human eIF4E protein) of the same compound?
The IC50 was 100 to 500 nM.

Cc1nc2c(c(=O)n1CC#Cc1ccc(Cl)cc1-c1ccnc3c(C(=O)NS(C)(=O)=O)csc13)CC(N(C)C1CC(F)(F)C1)CC2 (single isomer, unassigned) [Compound 333] was tested. Which IC50 ([1]; Homo sapiens, COLO 205, 72 h) did it give?
Its IC50 is less than 5000 nM.

And the IC50 ([2]; Homo sapiens, Flp-In-293, 24 h)?
Its IC50 is less than 1000 nM.

What about the IC50 (human eIF4E protein) of the same compound?
Its IC50 is less than 100 nM.

What does the source list for Cc1nc2c(c(=O)n1CC#Cc1ccc(Cl)cc1-c1ccnc3c(C(=O)NS(C)(=O)=O)csc13)CC(N(C)C1CC(F)(F)C1)CC2 (single isomer, unassigned) [Compound 334]?
IC50 [1]: < 5000 nM; IC50 [2]: < 1000 nM; IC50 (human eIF4E protein): < 100 nM

With Cc1cc(-c2cc(Cl)ccc2OCCn2c(C)nc3c(c2=O)CC(N(C)C2CC2)CC3)c2scc(C(=O)O)c2n1 (single isomer, unassigned) [Compound 335] as the compound, how does the IC50 ([1]; Homo sapiens, COLO 205, 72 h) read?
The IC50 was less than 5000 nM.

What about the IC50 ([2]; Homo sapiens, Flp-In-293, 24 h) of the same compound?
The IC50 was less than 1000 nM.

And the IC50 (human eIF4E protein)?
Its IC50 is less than 100 nM.

How did the IC50 [1] turn out when Cc1cc(-c2cc(Cl)ccc2OCCn2c(C)nc3c(c2=O)CC(N(C)C2CC2)CC3)c2scc(C(=O)O)c2n1 (single isomer, unassigned) [Compound 336] was run?
Its IC50 is less than 5000 nM.

What about the IC50 [2] of the same compound?
The IC50 was less than 1000 nM.

And the IC50 (human eIF4E protein)?
The IC50 was less than 100 nM.

What does the source list for Cc1cc(-c2cc(Cl)ccc2OCCn2c(C)nc3c(c2=O)CC(N(C)C2CCC(F)(F)C2)CC3)c2scc(C(=O)O)c2n1 (single isomer, unassigned) [Compound 337]?
IC50 ([1]; Homo sapiens, COLO 205, 72 h): < 5000 nM; IC50 ([2]; Homo sapiens, Flp-In-293, 24 h): < 1000 nM; IC50 (human eIF4E protein): < 100 nM

Which IC50 [1] does the source give for Cc1cc(-c2cc(Cl)ccc2OCCn2c(C)nc3c(c2=O)CC(N(C)C2CCC(F)(F)C2)CC3)c2scc(C(=O)O)c2n1 (single isomer, unassigned) [Compound 338] here?
Its IC50 is less than 5000 nM.

And the IC50 [2]?
The IC50 was less than 1000 nM.

What about the IC50 (human eIF4E protein) of the same compound?
The IC50 was less than 100 nM.

Which IC50 ([1]; Homo sapiens, COLO 205, 72 h) does the source give for Cc1cc(-c2cc(Cl)ccc2OCCn2c(C)nc3c(c2=O)CC(N2CC(F)(F)C2)CC3)c2sccc2n1 (single isomer, unassigned) [Compound 340] here?
Its IC50 is greater than 20000 nM.

What about the IC50 ([2]; Homo sapiens, Flp-In-293, 24 h) of the same compound?
Its IC50 is greater than 5000 nM.

What about the IC50 (human eIF4E protein) of the same compound?
The IC50 was 500 to 5000 nM.

Cc1cc(-c2cc(Cl)ccc2OCCn2c(C)nc3c(c2=O)CC(N2CC(F)(F)C2)CC3)c2sccc2n1 (single isomer, unassigned) [Compound 341] was tested. Which IC50 [1] did it give?
The IC50 was greater than 20000 nM.

And the IC50 [2]?
Its IC50 is greater than 5000 nM.

What about the IC50 (human eIF4E protein) of the same compound?
Its IC50 is 500 to 5000 nM.

Cc1cc(-c2cc(Cl)ccc2OCCn2c(C)nc3c(c2=O)CC(N2CC(F)C2)CC3)c2scc(C(=O)NS(C)(=O)=O)c2n1 (single isomer, unassigned) [Compound 342] was tested. Which IC50 ([1]; Homo sapiens, COLO 205, 72 h) did it give?
Its IC50 is less than 5000 nM.

What about the IC50 ([2]; Homo sapiens, Flp-In-293, 24 h) of the same compound?
The IC50 was less than 1000 nM.

And the IC50 (human eIF4E protein)?
The IC50 was less than 100 nM.

What does the source list for Cc1cc(-c2cc(Cl)ccc2OCCn2c(C)nc3c(c2=O)CC(N2CC(F)C2)CC3)c2scc(C(=O)NS(C)(=O)=O)c2n1 (single isomer, unassigned) [Compound 343]?
IC50 [1]: < 5000 nM; IC50 [2]: < 1000 nM; IC50 (human eIF4E protein): < 100 nM
